# From PMC5224920, “Assessing the mechanism and therapeutic potential of modulators of the human Mediator complex-associated protein kinases” (eLife, 2016)
# System: 12 single or co-culture in vitro tissue models of primary cells
# Assay: Culture/co-culture cell model panel, extracellular biomarkers (DiscoveRx); on CCL2/MCP-1: reference of the scale not given here; on CD40: reference of the scale not given here; on CD69: reference of the scale not given here; on CXCL8/IL-8: reference of the scale not given here; on IL-1alpha: reference of the scale not given here; on M-CSF: reference of the scale not given here
# Type: cell-based, human
# Details: for CCL2/MCP-1 / CCL3/MIP-1alpha / CD40 / CD62E/E-Selectin / CD69 / CD106/VCAM-1 / CXCL8/IL-8 / IL-1alpha / M-CSF / SRB / SRB-Mphg / sIL-10: /Mphg Huvec+macrophages
smiles,measurement,setting,value
Cc1n[nH]c2ncc(C(=O)N3CCC[C@H]3c3ccc(Cl)cc3)cc12 [CMPD4],Collagen I,"/HDFNo, 4.57E0 nM",-0.029
same,Collagen III,"/HDFNo, 4.57E0 nM",0.064
same,CCL2/MCP-1,1.00E4 nM,-0.014
same,CCL3/MIP-1alpha,1.00E4 nM,0.020
same,CD40,1.00E4 nM,0.064
same,CD62E/E-Selectin,1.00E4 nM,-0.080
same,CD69,1.00E4 nM,0.239
same,CD106/VCAM-1,1.00E4 nM,0.005
same,CXCL8/IL-8,1.00E4 nM,0.133
same,IL-1alpha,1.00E4 nM,-0.065
same,M-CSF,1.00E4 nM,0.054
same,SRB,1.00E4 nM,-0.016
same,SRB-Mphg,1.00E4 nM,0.00054
same,sIL-10,1.00E4 nM,-0.061
same,CCL2/MCP-1,1.11E3 nM,-0.111
same,CCL3/MIP-1alpha,1.11E3 nM,-0.011
same,CD40,1.11E3 nM,0.027
same,CD62E/E-Selectin,1.11E3 nM,-0.087
same,CD69,1.11E3 nM,0.187
same,CD106/VCAM-1,1.11E3 nM,-0.0013
same,CXCL8/IL-8,1.11E3 nM,0.008
same,IL-1alpha,1.11E3 nM,-0.048
same,M-CSF,1.11E3 nM,-0.024
same,SRB,1.11E3 nM,-0.010
same,SRB-Mphg,1.11E3 nM,-0.020
same,sIL-10,1.11E3 nM,-0.122
same,CCL2/MCP-1,1.23E2 nM,-0.109
same,CCL3/MIP-1alpha,1.23E2 nM,0.015
same,CD40,1.23E2 nM,-0.002
same,CD62E/E-Selectin,1.23E2 nM,-0.108
same,CD69,1.23E2 nM,0.181
same,CD106/VCAM-1,1.23E2 nM,0.017
same,CXCL8/IL-8,1.23E2 nM,0.014
same,IL-1alpha,1.23E2 nM,-0.049
same,M-CSF,1.23E2 nM,-0.028
same,SRB,1.23E2 nM,-0.00948
same,SRB-Mphg,1.23E2 nM,0.00118
same,sIL-10,1.23E2 nM,-0.100
same,CCL2/MCP-1,1.37E1 nM,-0.054
same,CCL3/MIP-1alpha,1.37E1 nM,0.000182
same,CD40,1.37E1 nM,-0.054
same,CD62E/E-Selectin,1.37E1 nM,-0.144
same,CD69,1.37E1 nM,0.083
same,CD106/VCAM-1,1.37E1 nM,0.0075
same,CXCL8/IL-8,1.37E1 nM,0.000538
same,IL-1alpha,1.37E1 nM,-0.006
same,M-CSF,1.37E1 nM,-0.041
same,SRB,1.37E1 nM,-0.007
same,SRB-Mphg,1.37E1 nM,0.004
same,sIL-10,1.37E1 nM,0.023
same,CCL2/MCP-1,3.33E3 nM,-0.091
same,CCL3/MIP-1alpha,3.33E3 nM,-9.82e-5
same,CD40,3.33E3 nM,0.039
same,CD62E/E-Selectin,3.33E3 nM,-0.094
same,CD69,3.33E3 nM,0.200
same,CD106/VCAM-1,3.33E3 nM,0.025
same,CXCL8/IL-8,3.33E3 nM,0.043
same,IL-1alpha,3.33E3 nM,-0.044
same,M-CSF,3.33E3 nM,-0.021
same,SRB,3.33E3 nM,-0.013
same,SRB-Mphg,3.33E3 nM,0.00473
same,sIL-10,3.33E3 nM,-0.159
same,CCL2/MCP-1,3.70E2 nM,-0.110
same,CCL3/MIP-1alpha,3.70E2 nM,-0.009
same,CD40,3.70E2 nM,-0.020
same,CD62E/E-Selectin,3.70E2 nM,-0.094
same,CD69,3.70E2 nM,0.185
same,CD106/VCAM-1,3.70E2 nM,0.027
same,CXCL8/IL-8,3.70E2 nM,0.00143
same,IL-1alpha,3.70E2 nM,-0.030
same,M-CSF,3.70E2 nM,-0.017
same,SRB,3.70E2 nM,-0.005
same,SRB-Mphg,3.70E2 nM,-0.005
same,sIL-10,3.70E2 nM,-0.159
same,CCL2/MCP-1,4.12E1 nM,-0.089
same,CCL3/MIP-1alpha,4.12E1 nM,0.015
same,CD40,4.12E1 nM,-0.055
same,CD62E/E-Selectin,4.12E1 nM,-0.120
same,CD69,4.12E1 nM,0.131
same,CD106/VCAM-1,4.12E1 nM,-0.013
same,CXCL8/IL-8,4.12E1 nM,0.037
